Measurements from patent US20190315806A1, “POLYMYXIN DERIVATIVE, PREPARATION METHOD AND APPLICATION THEREOF” (priority 2016, published 2019).
≈ marks a conversion by molar mass, not a printed value. Where a SMILES comes first, the peptide text is derived from it. Bridges are numbered along the chain shown (N, C = ends). [ ]: non-standard residue; d: D form. The star is where a group is joined. Heptanoyl(6-Me) = CC(C)CCCCC(=O)*; Octanoyl(7-Me) = CC(C)CCCCCC(=O)*; Heptanoyl = CCCCCCC(=O)*; Dab = NCC[C@H](N)C(=O)O; Nva = CCC[C@H](N)C(=O)O

What was measured:
Format in all cases: cell-based
[1] = tested on: Acinetobacter baumannii ATCC 19606; settings: ATCC 19606
Method in brief: (§1)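 Compounds were serially diluted twofold in broth, added to dishes, then mixed with molten agar to give 0.03–128 μg/mL final. Strains grown overnight in nutrient, brain heart infusion or HTM broth were diluted and spotted at 10^4 CFU/dot. Plates were incubated at 35° C. for 18–24 hours before MIC reading.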

[2] = tested on: Staphylococcus epidermidis ATCC 12228; settings: ATCC 12228
Method in brief: as §1

[3] = tested on: Escherichia coli ATCC 25922; settings: ATCC 25922
Method in brief: as §1

[4] = tested on: Pseudomonas aeruginosa ATCC 27853; settings: ATCC 27853
Method in brief: as §1

[5] = tested on: Klebsiella pneumoniae ATCC BAA-2146 (NDM-1); experiment: Antibacterial activity, MIC by dish double dilution method; settings: ATCC BAA-2146
Method in brief: as §1

[6] = Nephrotoxicity test, renal cytotoxicity by MTT method; settings: African green monkey
Protocol: African green monkey kidney cells (Vero cells) were cultured in MEM medium (Hyclone), 10% fetal calf serum (Invitrogen) was added before use, cultured at 37° C. under 5% CO2.
Experiment was carried out using MTT method. After digestion, cells in logarithmic growth phase were counted, then the cells were inoculated in a 96-well culture plate. After incubation for 24 h to be adherent, cells were treated with a concentration gradient of a compound of the invention (e.g., a compound prepared in the Embodiments) and the controls. After 72 h, the culture solution was removed, 100 uL of MTT reagent at a concentration of 0.5 mg/ml was added, the medium was removed after incubating for 3 hours in a 37° C. incubator. Add 150 μL DMSO solvent to each well, mix for 3 min, after which the absorbance at 570 nm (A) was measured with a microplate reader.
Cell viability %=(Adosed cell−Abackground)/(Acontrol cell−Abackground)×100%. The average value of 3 parallel wells was taken for each detection point, and the inhibition curve was drawn to calculate the IC50 value.
The African green monkey kidney cells (Vero cells) used in the experiment were from the Cell Resource Center of the Institute of Basic Medicine, Chinese Academy of Medical Sciences.

| MIC A. baumannii ATCC 19606 [1] | MIC S. epidermidis ATCC 12228 [2] | MIC E. coli ATCC 25922 [3] | MIC P. aeruginosa ATCC 27853 [4] | MIC K. pneumoniae ATCC BAA-2146 (NDM-1) [5] | Structure (SMILES) | IC50 at 72 h [6] |
| --- | --- | --- | --- | --- | --- | --- |
| 1 µg/mL (≈ 0.876 µM) | >128 µg/mL | 0.5 µg/mL (≈ 0.438 µM) | 2 µg/mL (≈ 1.75 µM) | 0.5 µg/mL (≈ 0.438 µM) | CC(C)CCCCC(=O)N[C@@H](CCN)C(=O)N[C@H](C(=O)N[C@@H](CCN)C(=O)N[C@H]1CCNC(=O)[C@H]([C@@H](C)O)NC(=O)[C@H](CCN)NC(=O)[C@H](CCN)NC(=O)[C@H](C(C)C)NC(=O)[C@@H](CC(C)C)NC(=O)[C@H](CCN)NC1=O)[C@@H](C)O [Compound 76, 6-methylheptanoyl-Dab-Thr-Dab-ring(4-10)[Dab-Dab-D-Leu-Val-Dab-Dab-Thr]] ({Heptanoyl(6-Me)}-[Dab]T[Dab][Dab][Dab][dL]V[Dab][Dab]T; lactam 4-C) | 225 ± 17 µg/mL (≈ 197 µM) |
| 0.5 µg/mL (≈ 0.438 µM) | >128 µg/mL | 0.5 µg/mL (≈ 0.438 µM) | 1 µg/mL (≈ 0.876 µM) | 0.5 µg/mL (≈ 0.438 µM) | CCC[C@@H]1NC(=O)[C@@H](CC(C)C)NC(=O)[C@H](CCN)NC(=O)[C@@H](NC(=O)[C@H](CCN)NC(=O)[C@@H](NC(=O)[C@H](CCN)NC(=O)CCCCC(C)C)[C@@H](C)O)CCNC(=O)[C@H]([C@@H](C)O)NC(=O)[C@H](CCN)NC(=O)[C@H](CCN)NC1=O [Compound 77, 6-methylheptanoyl-Dab-Thr-Dab-ring(4-10)[Dab-Dab-D-Leu-Nva-Dab-Dab-Thr]] ({Heptanoyl(6-Me)}-[Dab]T[Dab][Dab][Dab][dL][Nva][Dab][Dab]T; lactam 4-C) | 168 ± 12.5 µg/mL (≈ 148 µM) |
| 2 µg/mL (≈ 1.75 µM) | >128 µg/mL | 1 µg/mL (≈ 0.876 µM) | 1 µg/mL (≈ 0.876 µM) | 0.5 µg/mL (≈ 0.438 µM) | CCCCCCC(=O)N[C@@H](CCN)C(=O)N[C@H](C(=O)N[C@@H](CCN)C(=O)N[C@H]1CCNC(=O)[C@H]([C@@H](C)O)NC(=O)[C@H](CCN)NC(=O)[C@H](CCN)NC(=O)[C@H](CC(C)C)NC(=O)[C@@H](CC(C)C)NC(=O)[C@H](CCN)NC1=O)[C@@H](C)O [Compound 82, heptanoyl-Dab-Thr-Dab-ring(4-10)[Dab-Dab-D-Leu-Leu-Dab-Dab-Thr]] (Heptanoyl-[Dab]T[Dab][Dab][Dab][dL]L[Dab][Dab]T; lactam 4-C) | 216 ± 16.1 µg/mL (≈ 189 µM) |
| 1 µg/mL (≈ 0.855 µM) | 64 µg/mL (≈ 54.7 µM) | 1 µg/mL (≈ 0.855 µM) | 2 µg/mL (≈ 1.71 µM) | 1 µg/mL (≈ 0.855 µM) | CC(C)CCCCCC(=O)N[C@@H](CCN)C(=O)N[C@H](C(=O)N[C@@H](CCN)C(=O)N[C@H]1CCNC(=O)[C@H]([C@@H](C)O)NC(=O)[C@H](CCN)NC(=O)[C@H](CCN)NC(=O)[C@H](CC(C)C)NC(=O)[C@@H](CC(C)C)NC(=O)[C@H](CCN)NC1=O)[C@@H](C)O [Compound 86, 7-methyloctanoyl-Dab-Thr-Dab-ring(4-10)[Dab-Dab-D-Leu-Leu-Dab-Dab-Thr]] ({Octanoyl(7-Me)}-[Dab]T[Dab][Dab][Dab][dL]L[Dab][Dab]T; lactam 4-C) | 87 ± 6.98 µg/mL (≈ 74.4 µM) |
| 1 µg/mL (≈ 0.875 µM) | >128 µg/mL | 0.5 µg/mL (≈ 0.437 µM) | 0.5 µg/mL (≈ 0.437 µM) | 0.5 µg/mL (≈ 0.437 µM) | CC(C)CCCCC(=O)N[C@@H](CCN)C(=O)N[C@H](C(=O)N[C@@H](CCN)C(=O)N[C@H]1CCNC(=O)[C@H]([C@@H](C)O)NC(=O)[C@H](CCN)NC(=O)[C@H](CCN)NC(=O)[C@H]([C@@H](C)O)NC(=O)[C@@H](CC(C)C)NC(=O)[C@H](CCN)NC1=O)[C@@H](C)O [Compound 103, 6-methylheptanoyl-Dab-Thr-Dab-ring(4-10)[Dab-Dab-D-Leu-Thr-Dab-Dab-Thr]] ({Heptanoyl(6-Me)}-[Dab]T[Dab][Dab][Dab][dL]T[Dab][Dab]T; lactam 4-C) | 276 ± 17.7 µg/mL (≈ 241 µM) |
